# Like-named read-outs stand apart in the source and are kept apart here.
# Key:
# [1] = test system: multiple myeloma cells U266; test: MTT test, cell viability of U266 cells; format: cell-based, human
# Procedure: (§1) The MTT test is a standard assay addressing cell toxicity of a compound. It is based on the principle that after 3-4 hours of cell incubation with MTT (3-(4,5-dimethylthiazole-2-yl)-2,5-diphenyl tetrazolium bromide) so-called purple formazan crystals develop in living and early apoptotic cells. Dead cells don't produce formazan crystals.
# (§2) Different cell lines were tested. Unless indicated differently, A549 human lung epithelial cells (derived from lung carcinoma) and L929sA murine fibroblast cells were cultured in DMEM with 10% FCS, 100 U/ml penicillin and 100 μg/ml streptomycin. Unless indicated differently, the human multiple myeloma cell lines L363, U266 and MM1.S were cultured in RPMI 1640 with Glutamax-I, supplemented with 10% FCS, 100 U/ml penicillin and 100 μg/ml streptomycin. Cells were seeded at 5000 cells/well (for adherent A549 and L929sA cells) or at 10000 cells/well (for the multiple myeloma lines in suspension) in 96 well plates. Cells were incubated in the presence of the respective synephrine compounds or vehicle (EtOH; for control test) in a final volume of 0.2 ml for 24 or 48 hours at 37° C. Subsequently, 20 μl of MTT solution (5 mg/ml in phosphate-buffered saline) was added to each well. After 4 hours incubation at 37° C., 80 μl of the extraction buffer (10% SDS, 0.01 M HCl) was added. After overnight incubation at room temperature, the optical densities at 590 nm were measured. Results are illustrated in FIGS. 2 to 6 and are expressed as percentage of viable cells as compared to vehicle-treated controls.
# (§3) The MTT test was further extended to include alternative synephrine derivatives and a range of multiple myeloma cell lines for which the results are illustrated by FIGS. 3A, 3B and 4A. Human multiple myeloma cell lines L363, U266 and MM1.S were cultured in RPMI 1640 with Glutamax-I, supplemented with 10% FCS, 100 U/ml penicillin and 100 μg/ml streptomycin. Cells were seeded at 10000 cells/well in 96 well plates. Cells were incubated in the presence of test compounds or vehicle in a final volume of 0.2 ml for 24 or 48 hours at 37° C. The test compounds included in the test were the synephrine derivatives CpdA, Naphth, Benz and Isobut, and DEX as a comparative example. Subsequently, 20 μl of MTT solution (5 mg/ml in phosphate-buffered saline) was added to each well. After 4 hours incubation at 37° C., 80 μl of the extraction buffer (10% SDS, 0.01 M HCl) was added. After 48 hours incubation at room temperature, the optical densities at 590 nm were measured. Results are expressed as percentage of viable cells as compared to vehicle-treated controls.
# L363 cell line = test: MTT test, cell viability of L363 cells; format: cell-based, human; settings: Homo sapiens, L-363; 10^−4 M; 10% FCS; FIG. 3B; read-out: Block of L363 cell viability
# Procedure: as §1, §2, §3
# NFκB = test: EMSA of NFkB DNA binding in MCF7 cells; format: cell-based, human; settings: pre-treated 10, 1, 0.1, 0.01, 0.001 μM for two hours, TNF 2000 IU/ml 30 min, FIG. 7A
# Procedure: For the EMSA, the MCF7 cells were pre-treated with varying concentrations of CpdA (10, 1, 0.1, 0.01, and 0.001 μM) and DEX (0.1 μM) for two hours and subsequently TNF-induced or non-TNF-induced during 30 min at 2000 IU/ml. After the induction period, nuclear extracts were examined in EMSA assays. Cells were washed with ice-cold PBS, scraped off, and pelleted in 15 ml of PBS by centrifugation for 5 min at 2600 rpm at 4° C. and lysed for 30 minutes at 4° C. in Totex buffer (20 mM HEPES (pH 7.9), 350 mM NaCl, 1 mM MgCl, 0.5 mM EDTA, 0.1 mM EGTA, 5 mM DTT, 20% glycerol, 1% NP-40, 0.1% PMSF, 1% aprotinin (4 mg/ml leupeptin). Supernatants from a 4000-rpm 10-min centrifugation were collected, aliquoted and stored at −20° C. until further use. Radiolabelled oligonucleotides that correspond to a consensus κB DNA-binding element of the IL-6 promoter, and of activating protein 1 (AP-1) DNA target-were used for appropriate EMSA's. These oligonucleotides of about 25 nucleotides comprise centrally the transcription factor binding motif. […] The samples were analyzed by electrophoresis on 6% native polyacrylamide gels. […] Visualization and quantitation of radioactive signals was carried out by a Phosphorlmager and scanned using a bioimaging analyzer (Personal Molecular Imager® FX Bio-Rad). […]
# MCF7 breast cancer cells = settings: 10^−5 M
# Procedure: In further experiments, nylon arrayfilter hybridization experiments were performed. cDNA array analyses were carried out according to the instructions of the manufacturer (SuperArray Simplicity GEArray™ KIT) on the cDNA arrays cancer pathway finder and stress and toxicity array. Total RNA, obtained by the protocol as described herein above, was used as a template for [α−^33P]-cDNA probe synthesis using the following steps:
# A second array hybridization experiment was performed on Human Stress and Toxicity Pathway Finder GEarray Q series. The same protocol was followed as for the array hybridization experiment on the Human Cancer Pathway Finder described herein above.
smiles,measurement,setting,value
"CNCC(Cl)c1ccc(OC(C)=O)cc1.Cl (centres unmarked) [CpdA, 2-(4-acetoxyphenyl)-2-chloro-N-methyl-ethylammonium chloride]",Cell killing of U266 cells,"[1]; 10^−4M, serum-containing medium, FIG. 2B",60%
same,Cell killing of U266 cells,"[1]; 10^−5M, growth medium with 10% fetal calf serum, 48 hours, FIG. 2B",10%
same,Cell killing of U266 cells,"[1]; 10^−5M, serum-free growth medium, 24 hours, FIG. 2A",60%
same,Effect on cell viability of U266 cells,"[1]; 10^−6 to 10^−5 M, 10% FCS, FIG. 3A",15-20%
same,cytotoxicity at 100 µM,"[1]; Homo sapiens, U-266, 10^−4 M, 10% FCS, FIG. 3A, read-out: Block of U266 cell viability / cell killing",40%
same,cytotoxicity at 100 µM,"[1]; Homo sapiens, U-266, 10^−4M, serum-free medium, FIG. 2A, read-out: Cell killing / reduction of viability of U266 cells",80%
same,cytotoxicity at 1 µM,"[1]; Homo sapiens, U-266, 10^−6M, serum-free growth medium, 24 hours, FIG. 2A, read-out: Inhibition of viability of U266 cells",40%
same,cytotoxicity at 100 µM,L363 cell line,50%
same,NFkB available for DNA binding (EMSA),NFκB,significant impairment of NFkB available for DNA binding
same,"Gene response of CRYAB, DNAJA1, pcna, mdm2",MCF7 breast cancer cells,increased gene response
same,"Levels of HSPA1A, HSPA1B, HSPA4 (=hsp70), CSF2, SCYA4 (MIP1B), ANXA5, casp10, casp8, ERCC5, TNFSF6 (FasL)",MCF7 breast cancer cells,increases levels

# Source: US8039501B2, “Synephrine derivatives useful as anti-inflammatory agents” (Universiteit Gent, priority 2005, dated 2011)
